The target of one assay is human PD-L1 (Homo sapiens (Human), UniProt Q9NZQ7). Briefly: T cell activation luciferase reporter cell culture system (T Cell Activation Assay). The assay is classed as cell-based. Particulars: luciferase reporter assay; PD-L1 aAPC/CHO-K1 cells with PD-1 effector Jurkat T cells. A general note: In a reporter assay the amount or activity of a reporter protein is the signal.

The target in assay [1] is PD-L1 His protein / PD-1 Fc protein (Homo sapiens (Human), UniProt Q9NZQ7). Briefly: HTRF Assay (PD-1/PD-L1 interaction). The settings on record: PD-L1 His 6 nM, PD-1 Fc 6 nM. The format is binding. (In general: In TR-FRET formats the signal depends on donor and acceptor labels being close together.)
Sequence of PD-L1 His protein / PD-1 Fc protein (Q9NZQ7 19-238): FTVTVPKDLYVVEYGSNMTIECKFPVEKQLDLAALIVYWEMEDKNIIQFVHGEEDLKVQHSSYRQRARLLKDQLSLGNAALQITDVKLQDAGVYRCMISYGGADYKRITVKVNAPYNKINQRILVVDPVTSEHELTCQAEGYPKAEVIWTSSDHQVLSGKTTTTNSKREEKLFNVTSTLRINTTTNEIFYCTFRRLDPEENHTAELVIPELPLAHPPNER

Sequence of human PD-L1 (Q9NZQ7 19-290): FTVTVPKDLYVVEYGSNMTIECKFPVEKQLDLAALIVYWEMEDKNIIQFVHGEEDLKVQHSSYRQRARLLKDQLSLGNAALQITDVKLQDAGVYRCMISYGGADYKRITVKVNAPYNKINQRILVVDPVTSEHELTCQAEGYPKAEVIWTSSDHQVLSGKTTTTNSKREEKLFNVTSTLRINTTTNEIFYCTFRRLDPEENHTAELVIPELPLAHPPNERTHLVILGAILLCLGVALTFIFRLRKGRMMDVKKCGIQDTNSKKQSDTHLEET

For the molecule `COC(=O)CNCc1ccc(-c2cccc(-c3ccnc(-c4cc5c(c(OC)c4)CN(C[C@H](C)O)CC5)c3Cl)c2Cl)nc1OC` [Compound 218, methyl (S)-((6-(2-chloro-3-(3-chloro-2-(2-(2-hydroxypropyl)-8-methoxy-1,2,3,4-tetrahydroisoquinolin-6-yl)pyridin-4-yl)phenyl)-2-methoxypyridin-3-yl)methyl)glycinate], the EC50 (in general, the concentration needed to bring the measured effect to its halfway point) at human PD-L1 amounted to 601 nM. For the same molecule, in assay [1], the IC50 (in general, the concentration that inhibits the measured activity by half) stood at 7.12 nM.

On human PD-L1, `COc1cc(-c2nccc(-c3cccc(-c4ccc(CNC[C@@H]5CCC(=O)N5)c(OC)n4)c3Cl)c2Cl)cc(C)c1CNC[C@H](C)O` [Compound 114, (S)-5-((((6-(2-chloro-3-(3-chloro-2-(4-((((S)-2-hydroxypropyl)amino)methyl)-3-methoxy-5-methylphenyl)pyridin-4-yl)phenyl)-2-methoxypyridin-3-yl)methyl)amino)methyl)pyrrolidin-2-one] yielded an EC50 of 81.2 nM. This molecule also returned an IC50 in assay [1] of 0.9 nM.

Molecule `COc1cc(-c2nccc(-c3cccc(-c4ccc(CN5CC6(COC6)C5)c(OC)n4)c3C(F)(F)F)c2Cl)ccc1CN1CC2(COC2)C1` [Example 578, 6-(4-(4-(3-(5-((2-Oxa-6-azaspiro[3.3]heptan-6-yl)methyl)-6-methoxypyridin-2-yl)-2-(trifluoromethyl)phenyl)-3-chloropyridin-2-yl)-2-methoxybenzyl)-2-oxa-6-azaspiro[3.3]heptane] displayed an EC50 at human PD-L1 not below 10000 nM. Also, the IC50 in assay [1] worked out at 70.3 nM.

For the molecule `COc1cc(-c2nccc(-c3cccc(-c4ccc(CN5CCC(C(C)=O)CC5)c(OC)n4)c3Cl)c2Cl)ccc1CN1CCC(C(C)=O)CC1` [Example 536, 1-(1-((6-(3-(2-(4-((4-Acetylpiperidin-1-yl)methyl)-3-methoxyphenyl)-3-chloropyridin-4-yl)-2-chlorophenyl)-2-methoxypyridin-3-yl)methyl)piperidin-4-yl)ethan-1-one], on human PD-L1, the EC50 was not below 10000 nM. For the same molecule, the midpoint of inhibition in assay [1], the IC50, lay at 6.7 nM.

`COc1cc(-c2nccc(-c3cccc(-c4ccc(CNCCN5CCCC5=O)c(OC)n4)c3Cl)c2Cl)ccc1CNCCN1CCCC1=O` [Example 303, 1-(2-(((6-(2-Chloro-3-(3-chloro-2-(3-methoxy-4-(((2-(2-oxopyrrolidin-1-yl)ethyl)amino)methyl)phenyl)pyridin-4-yl)phenyl)-2-methoxypyridin-3-yl)methyl)amino)ethyl)pyrrolidin-2-one] came in with an EC50 on human PD-L1 of 30.8 nM. In assay [1], this molecule gave a concentration for half-maximal inhibition (IC50) of 2.83 nM.

Take `COc1cc(-c2nccc(-c3cccc(-c4cc5c(c(OC)c4)CN(C[C@@H]4CCC(=O)N4)CC5)c3Cl)c2Cl)ccc1CNC[C@@H]1CCC(=O)N1` [Compound 18, (S)-5-((6-(2-chloro-3-(3-chloro-2-(3-methoxy-4-(((((S)-5-oxopyrrolidin-2-yl)methyl)amino)methyl)phenyl)pyridin-4-yl)phenyl)-8-methoxy-3,4-dihydroisoquinolin-2(1H)-yl)methyl)pyrrolidin-2-one]: the EC50 at human PD-L1 is 75.6 nM. The molecule further showed an IC50 in assay [1] of 39.8 nM.

For the molecule `COc1cc(-c2nccc(-c3cccc(-c4ccc(C5=NCCN5)c(OC)n4)c3Cl)c2Cl)ccc1C1=NCCN1` [Compound 106, 3-chloro-4-(2-chloro-3-(5-(4,5-dihydro-1H-imidazol-2-yl)-6-methoxypyridin-2-yl)phenyl)-2-(4-(4,5-dihydro-1H-imidazol-2-yl)-3-methoxyphenyl)pyridine], on human PD-L1, the EC50 was determined as 123 nM. Inhibition in assay [1] was half-maximal at 1.4 nM (IC50).

On to `COc1nc(-c2cccc(-c3nccc(-c4ccc(CN5CC6(CNC(=O)C6)C5)c(OC)n4)c3Cl)c2Cl)ccc1CN1CC2(CNC(=O)C2)C1` [Compound 573, 2-((3′-Chloro-2′-(2-chloro-3-(6-methoxy-5-((7-oxo-2,6-diazaspiro[3.4]octan-2-yl)methyl)pyridin-2-yl)phenyl)-6-methoxy-[2,4′-bipyridin]-5-yl)methyl)-2,6-diazaspiro[3.4]octan-7-one], for which the EC50 on human PD-L1 is 14.4 nM. In assay [1], this molecule displayed an IC50 of 0.17 nM.

`COc1nc(-c2cccc(-c3ccnc(-c4cc(OC)c5nc(CNCC(F)F)cn5c4)c3Cl)c2Cl)ccc1CNC1CCN(C(C)=O)CC1` [Example 478, 1-(4-(((6-(2-Chloro-3-(3-chloro-2-(2-(((2,2-difluoroethyl)amino)methyl)-8-methoxyimidazo[1,2-a]pyridin-6-yl)pyridin-4-yl)phenyl)-2-methoxypyridin-3-yl)methyl)amino)piperidin-1-yl)ethan-1-one] displayed an EC50 at human PD-L1 not below 10000 nM. The IC50 in assay [1] is 43.9 nM.

Regarding `COc1cc(-c2nccc(-c3cccc(-c4cn5cc(CNC[C@@H]6CCC(=O)N6)nc5cn4)c3Cl)c2Cl)ccc1CNC[C@@H]1CCC(=O)N1` [Example 291, (S)-5-((((6-(2-Chloro-3-(3-chloro-2-(3-methoxy-4-(((((S)-5-oxopyrrolidin-2-yl)methyl)amino)methyl)phenyl)pyridin-4-yl)phenyl)imidazo[1,2-a]pyrazin-2-yl)methyl)amino)methyl)pyrrolidin-2-one], the EC50 on human PD-L1 amounted to 376 nM. In assay [1], this molecule showed an IC50 of 1.41 nM.

On human PD-L1, `COc1cc(-c2nccc(-c3cccc(-c4ccc5c(CNCC(C)(C)O)cn(C)c5n4)c3Cl)c2Cl)ccc1CNC[C@@H]1CCC(=O)N1` [Compound 99, (S)-5-(((4-(3-chloro-4-(2-chloro-3-(3-(((2-hydroxy-2-methylpropyl)amino)methyl)-1-methyl-1H-pyrrolo[2,3-b]pyridin-6-yl)phenyl)pyridin-2-yl)-2-methoxybenzyl)amino)methyl)pyrrolidin-2-one] came in with an EC50 of 47.8 nM. Besides, in assay [1], 0.7 nM corresponded to half-maximal inhibition (IC50).

Consider `CCOc1cc(-c2nccc(-c3cccc(-c4ccc(CNC5CCN(C(C)=O)CC5)c(OC)n4)c3Cl)c2Cl)cn2nc(CN[C@H]3C[C@](C)(O)C3)nc12` [Example 584, 1-(4-(((6-(2-Chloro-3-(3-chloro-2-(8-ethoxy-2-((((1r,3r)-3-hydroxy-3-methylcyclobutyl)amino)methyl)-[1,2,4]triazolo[1,5-a]pyridin-6-yl)pyridin-4-yl)phenyl)-2-methoxypyridin-3-yl)methyl)amino)piperidin-1-yl)ethan-1-one], for which, on human PD-L1, the EC50 was not below 10000 nM. This molecule also came in with an IC50 in assay [1] of 2.21 nM.

In the case of `COc1nc(-c2cccc(-c3ccnc(-c4ccc(CN5CC6(CNC(=O)C6)C5)c(OC)n4)c3Cl)c2Cl)ccc1CN1CC2(CNC(=O)C2)C1` [Compound 628, 2-((3′-Chloro-4′-(2-chloro-3-(6-methoxy-5-((7-oxo-2,6-diazaspiro[3.4]octan-2-yl)methyl)pyridin-2-yl)phenyl)-6-methoxy-[2,2′-bipyridin]-5-yl)methyl)-2,6-diazaspiro[3.4]octan-7-one], the EC50 at human PD-L1 is 27.1 nM. Also, the IC50 in assay [1] was 0.28 nM.

`COc1cc(-c2nccc(-c3cccc(-c4ccc(CN[C@H]5C[C@](C)(O)C5)c(OC)n4)c3Cl)c2Cl)ccc1CN1CC2(CNC(=O)C2)C1` [Example 517, 2-(4-(3-Chloro-4-(2-chloro-3-(5-((((1r,3r)-3-hydroxy-3-methylcyclobutyl)-amino)methyl)-6-methoxypyridin-2-yl)phenyl)pyridin-2-yl)-2-methoxybenzyl)-2,6-diazaspiro[3.4]octan-7-one] had an EC50 at human PD-L1 of 17 nM. The molecule also displayed an IC50 in assay [1] of 1.55 nM.

In turn, `CNCc1ccc(-c2cccc(-c3ccnc(-c4cc(F)c(CNC)c(OC)c4)c3Cl)c2Cl)nc1OC` [Example 286, 1-(6-(2-Chloro-3-(3-chloro-2-(3-fluoro-5-methoxy-4-((methylamino)methyl)phenyl)pyridin-4-yl)phenyl)-2-methoxypyridin-3-yl)-N-methylmethanamine] registered an EC50 on human PD-L1 of 15.4 nM. Further, the IC50 in assay [1] worked out at 5.16 nM.

These data come from patent US20240246964A1 (Arbutus Biopharma Corporation, priority 2021, published 2024).
